The record followed here is US8853248B2, “(1,2,3-triazolyl)sulfonyl derivatives” (priority 2012, dated 2014).

Assay [1] concerns adjuvant-induced arthritis. It is filed as in vivo, rat (male Lewis rats). As to conditions: 30 mg/kg daily by intubation, 7 treatment days; day 28 minus day 21; micronized compound; standard deviation in parentheses. How it is done: As mentioned earlier, the compounds of formula (1) and pharmaceutically acceptable salts of compounds of formula (1) are useful in the treatment or prevention of inflammations. For example, they can be used as anti-inflammatory agents in the treatment of inflammatory joint diseases, such as arthritis, and in other diseases where inflammation is the inherent cause.
The adjuvant was prepared by homogenizing 170 mg of heat-killed and dried mycobacterium tuberculosis (Difco) in 22.7 mL of ‘Incomplete Freund's Adjuvant’ (ICFA, Difco). Male Lewis rats with body weights of 130-150 g were injected i.d. at the base of the tail with 0.1 ml of adjuvant. The non-diseased animals received 0.1 mL of ICFA i.d. The animals were housed individually and received feed and water ad libitum. The thus-induced arthritis was allowed to develop without treatment during 21 days. On day 21 the body weight of each animal was determined. At the same time, the volumes of the two hind paws of each animal were measured by immersing the paws in an aqueous plethysmograph up to the height of the lateral malleolus. […] Paw volumes and body weight were recorded diurnally. At the end of the treatment period (day 28), body weights and volumes of the hind paws were again determined. The changes over the treatment period were calculated. […] Subsequently, the animals were sacrificed and the liver weights recorded. […]

Another assay concerns the target T1, human recombinant COX-2 (Homo sapiens, UniProt P35354).
T1 construct: purchased Cayman Chemicals
T1 sequence (P35354 18-604): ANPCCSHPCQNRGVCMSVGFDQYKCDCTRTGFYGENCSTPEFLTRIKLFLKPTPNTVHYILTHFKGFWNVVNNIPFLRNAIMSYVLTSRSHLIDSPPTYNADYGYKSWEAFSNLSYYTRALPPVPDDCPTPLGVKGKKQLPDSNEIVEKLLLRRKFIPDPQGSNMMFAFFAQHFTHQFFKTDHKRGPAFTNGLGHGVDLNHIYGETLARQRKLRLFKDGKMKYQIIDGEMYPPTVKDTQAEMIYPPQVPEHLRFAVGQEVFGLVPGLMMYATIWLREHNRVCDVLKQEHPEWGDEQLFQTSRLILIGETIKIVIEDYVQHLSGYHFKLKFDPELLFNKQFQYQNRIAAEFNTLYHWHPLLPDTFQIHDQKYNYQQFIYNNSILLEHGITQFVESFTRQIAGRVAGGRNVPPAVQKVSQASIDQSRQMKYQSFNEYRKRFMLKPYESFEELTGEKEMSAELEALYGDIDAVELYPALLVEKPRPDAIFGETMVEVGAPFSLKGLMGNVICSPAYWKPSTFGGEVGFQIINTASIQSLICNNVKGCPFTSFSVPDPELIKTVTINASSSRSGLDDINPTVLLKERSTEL
Description: COX activity assay (Cayman colorimetric kit), COX-2. It is filed as biochemical. Particulars: purified enzyme, peroxidase activity read at 590 nm. The procedure: (§1) COX activity was measured using an assay kit obtained from Cayman Chemicals in accord with the instruction manual of the manufacturer “COX Activity Assay, Catalog No. 760151, Colorimetric Assay for the Determination of COX Activity.” The enzyme activity was determined by the peroxidase activity of cyclooxygenases on arachidonic acid and monitored colorimetrically at 590 nm by the appearance of oxidized N,N,N′,N′-tetramethyl-p-phenylenediamine. Both ovine COX-1 and human recombinant COX-2 were obtained from Cayman Chemicals.

In another assay the target is T2, ovine COX-1 (Ovis aries, UniProt P05979).
T2 construct: purchased Cayman Chemicals
T2 sequence (P05979 25-600): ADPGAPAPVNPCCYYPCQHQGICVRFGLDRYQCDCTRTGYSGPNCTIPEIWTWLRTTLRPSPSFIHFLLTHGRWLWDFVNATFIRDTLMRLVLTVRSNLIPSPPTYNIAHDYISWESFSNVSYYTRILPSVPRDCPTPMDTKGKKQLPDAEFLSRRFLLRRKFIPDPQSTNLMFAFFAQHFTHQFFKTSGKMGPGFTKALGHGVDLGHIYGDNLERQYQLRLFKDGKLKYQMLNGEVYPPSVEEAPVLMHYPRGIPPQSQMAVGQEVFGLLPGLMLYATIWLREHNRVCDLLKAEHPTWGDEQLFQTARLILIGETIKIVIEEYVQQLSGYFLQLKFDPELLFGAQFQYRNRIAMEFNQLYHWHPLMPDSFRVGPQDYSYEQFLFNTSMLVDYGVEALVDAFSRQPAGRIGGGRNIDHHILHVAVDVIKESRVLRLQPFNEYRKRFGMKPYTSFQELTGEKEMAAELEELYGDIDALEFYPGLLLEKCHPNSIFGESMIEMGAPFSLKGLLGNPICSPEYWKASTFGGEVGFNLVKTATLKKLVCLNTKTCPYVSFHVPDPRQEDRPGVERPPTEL
Description: COX activity assay (Cayman colorimetric kit), COX-1. It counts as biochemical. As to conditions: at a level of 300 μM; purified enzyme, peroxidase activity read at 590 nm. How it is done:
as §1

Each structure is given as a SMILES string.

`CNS(=O)(=O)c1nn[nH]c1-c1cc(C(C)(C)C)c(O)c(C(C)(C)C)c1` [Compound 1i, 5-(3,5-di-tert-butyl-4-hydroxy-phenyl)-N-methyl-1H-triazole-4-sulfonamide]: in assay [1], the “Volume change of left paw” value is −0.73 (0.08) mL and the “Volume change of right paw” value is reported as −0.63 (0.11) mL. Also, the IC50 at human recombinant COX-2 is 68 µM. At ovine COX-1, the “effect on COX-1 activity” value is recorded as “no effect”.
